From the NIST ThermoML archive (doi:10.1021/acs.jced.8b01004)

Columns and labels:
[1] = xn = mol fraction of the nth substance listed; settings: 100 kPa, Liquid; for viscosity: Falling or rolling sphere viscometry; for mass density: Vibrating tube method
[2] = 100 kPa, Liquid; for viscosity: Falling or rolling sphere viscometry; for mass density: Vibrating tube method

C1CC[C@H]2CCCC[C@H]2C1 [cis-decahydronaphthalene] + C1CC[C@H]2CCCC[C@@H]2C1
[1], x1 = 0.5
Settings	mass density [kg/m3]	viscosity [mPa·s]
293.15 K	880.41	2.488
298.15 K	876.64	2.255
303.15 K	872.86	2.054
308.15 K	869.1	1.88
313.15 K	865.33	1.727
318.15 K	861.56	1.592
323.15 K	857.8	1.473
328.15 K	854.02	1.367
333.15 K	850.25	1.272
338.15 K	846.47	1.188
343.15 K	842.68	1.111

OC1CCCC1 [cyclopentanol]
[2]
Settings	mass density [kg/m3]	viscosity [mPa·s]
293.15 K	946.99	11.88
298.15 K	943.05	9.722
303.15 K	939.05	8.068
308.15 K	935.01	7.077
313.15 K	930.91	6.04
318.15 K	926.75	5.19
323.15 K	922.53	4.441
328.15 K	918.24	3.83
333.15 K	913.89	3.312
338.15 K	909.48	2.886
343.15 K	904.99	2.53

CC1CCCCC1 [methylcyclohexane]
[2]
Settings	mass density [kg/m3]	viscosity [mPa·s]
293.15 K	769.35	0.735
298.15 K	765	0.689
303.15 K	760.65	0.647
308.15 K	756.3	0.611
313.15 K	751.93	0.577
318.15 K	747.56	0.547
323.15 K	743.16	0.519
328.15 K	738.74	0.495
333.15 K	734.29	0.473
338.15 K	729.82	0.453
343.15 K	725.32	0.434

CC1CCCCC1 [methylcyclohexane] + OC1CCCC1
[1], x1 = 1
Settings	mass density [kg/m3]	viscosity [mPa·s]
293.15 K	769.35	0.735
298.15 K	765	0.689
303.15 K	760.65	0.647
308.15 K	756.3	0.611
313.15 K	751.93	0.577
318.15 K	747.56	0.547
323.15 K	743.16	0.519
328.15 K	738.74	0.495
333.15 K	734.29	0.473
338.15 K	729.82	0.453
343.15 K	725.32	0.434
